Measured values as given in PMC3789947, “Mechanism for Recognition of an Unusual Mycobacterial Glycolipid by the Macrophage Receptor Mincle” (The Journal of Biological Chemistry, 2013).

Columns and labels:
bovine mincle CRD [1] = biological target: T1, bovine mincle CRD (Bos taurus, UniProt E1BHM0, I174T); assay: competition with […]-Man31-BSA on immobilized biotin-tagged CRD; type: binding; conditions: pH 7.8, 1.5 M NaCl, 2.5 mM CaCl2, 4 °C
T1 construct: gene CLEC4E; C-type carbohydrate recognition domain, residues 78-211
T1 sequence (E1BHM0 78-211 I174T): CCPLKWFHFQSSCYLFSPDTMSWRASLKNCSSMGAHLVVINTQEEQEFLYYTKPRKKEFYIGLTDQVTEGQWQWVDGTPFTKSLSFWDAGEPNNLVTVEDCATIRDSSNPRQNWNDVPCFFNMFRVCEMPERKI

bovine mincle CRD [2] = biological target: T1, bovine mincle CRD; assay: as above; type: binding
[3] = reported as KI(trehalose)/KI(acyltrehalose) ratio

SMILES | KI (bovine mincle CRD [1]; [3]) | further results
CCCC(=O)OC[C@H]1O[C@H](O[C@H]2O[C@H](CO)[C@@H](O)[C@H](O)[C@H]2O)[C@H](O)[C@@H](O)[C@@H]1O [mono-n-butanoyl derivative of trehalose] | the mono-n-butanoyl derivative showed enhanced affinity compared with trehalose | 
CCCCCCCC(=O)OC[C@H]1O[C@H](O[C@H]2O[C@H](CO)[C@@H](O)[C@H](O)[C@H]2O)[C@H](O)[C@@H](O)[C@@H]1O [mono-octanoyl trehalose] |  | Ki (bovine mincle CRD [2]): 58 ± 8 µM
CC(=O)OC[C@H]1O[C@H](O[C@H]2O[C@H](COC(C)=O)[C@@H](O)[C@H](O)[C@H]2O)[C@H](O)[C@@H](O)[C@@H]1O [trehalose acetylated at the two 6-OH groups] | acetylation at the two 6-OH groups is tolerated | 
CO[C@H]1O[C@H](CO)[C@@H](O)[C@H](O)[C@H]1O [α-methyl glucoside] |  | KI (bovine mincle CRD [1]): The mean ratio of KI values for α-methyl glucoside and trehalose
